In publication PMC7932537, “Quantitative profiling of protease specificity” (PLoS Computational Biology, 2021):

How the values were obtained:
MMP-9 [1] = experiment: Substrate phage display with NGS: relative probability (RP) of P3-P1' tetramer clusters; type: biochemical, human; conditions: MMP9; RP of the P3-P1' tetramer contained in the hexamer substrate (substrate phage display, NGS);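 also: ratio of tetramer probability after protease selection to that in naive phage library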
MMP-2 [2] = molecular target: T1, MMP-2 (Homo sapiens, UniProt P08253); experiment: kcat/KM of synthetic peptides derived from substrate phage selections; type: biochemical; conditions: synthetic hexamer peptides; recombinant MMP-2 catalytic domain, APMA-activated; determined in triplicate as described in ref 27
T1 construct: The recombinant catalytic domains of MMP-2 and -9 were expressed in HEK293 cells; made in house; host or cells: HEK293 cells, stably transfected; purified from serum-free medium on Gelatin Sepharose 4B
From the text: (§1) K(obs) obtained for each of the 1369 substrates has a range of 0 and 12,792 (M^-1 s^-1) due to the experimental conditions used in the study. So, all substrates with the true K(obs) above this value will nevertheless have a K(obs) equal to the preset maximum. With this limitation in mind, we corroborated the results using synthetic peptides, thereby extending the correlation to the entire range of kcat/KM values for each MMP. We performed a correlation analysis using a set of 100 peptides with sequences derived from substrate phage selections and their kcat/KM values were experimentally determined as described in [27] (S8 Table).
(§2) The recombinant catalytic domains of MMP-2 and -9 were expressed in HEK293 cells stably transfected with respective constructs and purified from serum-free culture medium using Gelatin Sepharose 4B (GE Healthcare) as described in [29, 35]. Following activation with APMA (Sigma-Aldrich), the amount of active enzyme was determined by active site titration using GM6001 (Sigma-Aldrich). The kcat/KM values of 100 peptides derived from phage substrates […] were determined in triplicate as described in [27].
(§3) Supplementary file pcbi.1008101.s010.xlsx: S8 Table Table of 100 peptide set derived from substrate phage selections of MMP-2 and 9, for which kcat/KM values were experimentally determined. […]

MMP-9 [3] = molecular target: MMP-9 (Homo sapiens, UniProt P14780); experiment: as above; type: biochemical; set-up: The recombinant catalytic domains of MMP-2 and -9 were expressed in HEK293 cells; made in house; host or cells: HEK293 cells, stably transfected; purified from serum-free medium on Gelatin Sepharose 4B; conditions: MMP9; 100 set of synthetic hexamer peptide substrates; mean, SD and SEM in columns of their own
From the text: as §1, §2, §3

MMP-2 [4] = experiment: Substrate phage display with NGS: relative probability (RP) of P3-P1' tetramer clusters; type: biochemical, human; conditions: RP of the P3-P1' tetramer cluster contained in the hexamer; 200 nM MMP-2, 2 h, 37°C, two rounds of selection;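 also: ratio of tetramer probability after protease selection to that in naive phage library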

T1 sequence (P08253 110-446 limits assumed): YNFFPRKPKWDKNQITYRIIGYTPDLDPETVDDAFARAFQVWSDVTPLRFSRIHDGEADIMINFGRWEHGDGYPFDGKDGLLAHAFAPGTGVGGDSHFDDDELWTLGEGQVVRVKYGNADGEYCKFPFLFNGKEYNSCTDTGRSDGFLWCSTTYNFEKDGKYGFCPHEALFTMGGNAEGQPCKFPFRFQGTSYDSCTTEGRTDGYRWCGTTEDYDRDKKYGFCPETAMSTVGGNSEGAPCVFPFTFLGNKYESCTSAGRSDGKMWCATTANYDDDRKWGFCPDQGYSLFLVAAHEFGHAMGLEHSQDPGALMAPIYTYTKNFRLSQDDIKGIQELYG
MMP-9 (Homo sapiens, UniProt P14780), sequence (P14780 94-444 limits assumed): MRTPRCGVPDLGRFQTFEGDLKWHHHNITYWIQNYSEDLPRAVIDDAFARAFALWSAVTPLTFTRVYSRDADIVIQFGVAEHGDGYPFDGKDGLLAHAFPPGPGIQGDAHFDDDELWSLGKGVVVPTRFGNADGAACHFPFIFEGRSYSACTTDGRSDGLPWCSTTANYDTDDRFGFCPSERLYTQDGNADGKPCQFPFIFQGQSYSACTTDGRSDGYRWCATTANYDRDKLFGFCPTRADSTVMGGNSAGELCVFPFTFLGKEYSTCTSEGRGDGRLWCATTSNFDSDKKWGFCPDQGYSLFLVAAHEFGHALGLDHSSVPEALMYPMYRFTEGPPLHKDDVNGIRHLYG

DRKPKA
relative probability (RP) (MMP-9 [1]): 1.5839 | kcat/Km (MMP-2 [2]): 0 M⁻¹ s⁻¹ | kcat/Km (MMP-9 [3]): 0 M⁻¹ s⁻¹ | relative probability (RP) (MMP-2 [4]): 0.3523
